Patent US10308615B2, “Heterocyclic compounds as inhibitors of Vanin-1 enzyme” (Pfizer Inc., priority 2015, dated 2019)

Legend:
Type in all cases: biochemical
human vanin-1 [1] = target: T1, human vanin-1 (Homo sapiens (Human), UniProt O95497); test: Human Vanin-1 Enzyme Assay 1; conditions: 25 pM human vanin-1, 50 uM pantetheine 7-amino-4-trifluoromethylcoumarin, 30 min preincubation, 60 min
Description: Human Vanin-1 Enzyme Assay 1.
(§1) The in vitro assay measures enzymatic cleavage of the fluorescently-labeled vanin substrate, pantetheine 7-amino-4-trifluoromethylcoumarin, by human vanin-1.
(§2) The vanin-1 protein was prepared in-house from a construct expressing the extracellular domain of human vanin-1 (GenBank ID NM_004666) preceded N-terminally by the honey bee melittin signal peptide, a GSG linker sequence, a His6X tag and a FLAG tag. The secreted, soluble enzyme was purified from the conditioned medium from a CHO cell line stably expressing the resulting protein. Enzyme purification was performed through sequential Ni NTA and size-exclusion chromatography steps.
The test inhibitors were solubilized in DMSO to a stock concentration of 30 mM. On the day of the assay, dose response plates were prepared by diluting the inhibitors in DMSO at compound concentration 200-fold the final in-assay concentration. Intermediate concentrations were prepared by diluting in DMSO in a four-fold series for a total of 11 data points.
To prepare a working solution of human vanin-1, the enzyme was diluted to 33.3 pM in the assay buffer consisting of 50 mM Tris-HCl pH=8.0, 50 mM KCl, 0.005% Brij-35 and […] cysteamine. To begin the assay 100 nL was transferred from the compound plate to the assay plate. Next, 15 μL of the vanin-1 working solution were transferred to the assay plate. The inhibitor and enzyme were incubated at room temperature for 30 minutes. The enzyme reaction was then initiated by the addition of 5 μL of 200 μM pantetheine 7-amino-4-trifluoromethylcoumarin prepared in assay buffer. The final concentrations in the assay were 25 pM human vanin-1 and 50 uM substrate. The final concentration of DMSO was 0.5%. The assay plates were incubated for 60 minutes and before they were read on a Perkin Elmer EnVision Model 2103 using a 405 nm excitation wavelength and a 510 nm emission wavelength for detection.

human vanin-1 [2] = target: T1, human vanin-1; test: Human Vanin-1 Enzyme Assay 2; conditions: 1 nM human vanin-1, 10 uM substrate, 45 min
Description: Human Vanin-1 Enzyme Assay 2.
as §1, §2
(§3) On the day of the assay, dose response plates were prepared by diluting the inhibitors in DMSO at compound concentration 100-fold the final in-assay concentration. Concentration series were prepared by serially diluting in DMSO in a half-log series for a total of 11 data points. Intermediate compound plates containing compound in 10% DMSO were then created by diluting the compounds 10-fold in assay buffer consisting of 50 mM Tris-HCl pH=8.0, 50 mM KCl, 0.005% Brij-35 and 1.5 mM cysteamine. To begin the assay 3 μL were transferred from the intermediate compound plate to the assay plate.
A working solution of human vanin-1 was prepared by diluting the enzyme stock to 1.25 nM in assay buffer. Next, 24 μL of the vanin-1 working solution were transferred to the assay plate. The enzyme reaction was then initiated by the addition of 3 μL of 100 μM pantetheine 7-amino-4-trifluoromethylcoumarin prepared in assay buffer. The final concentrations in the assay were 1 nM human vanin-1 and 10 uM substrate. The final concentration of DMSO was 1%. The assay plates were incubated for 45 minutes and before they were read on a Spectramax M5 using a 405 nm excitation wavelength and a 505 nm emission wavelength for detection.

human vanin-1 [3] = target: T1, human vanin-1; test: Human Vanin-1 Enzyme Assay 3; conditions: 2 nM human vanin-1, 10 uM substrate, 15 min
Description: Human Vanin-1 Enzyme Assay 3.
as §1, §2
as §3, with “two-fold” for “half-log”
A working solution of human vanin-1 was prepared by diluting the enzyme stock to 2.5 nM in assay buffer. Next, 24 μL of the vanin-1 working solution were transferred to the assay plate. The enzyme reaction was then initiated by the addition of 3 μL of 100 μM pantetheine 7-amino-4-trifluoromethylcoumarin prepared in 5 uM acetic acid. The final concentrations in the assay were 2 nM human vanin-1 and 10 uM substrate. The final concentration of DMSO was 1%. The assay plates were incubated at room temperature for 15 minutes and before they were read on a Tecan Safire using a 405 nm excitation wavelength and a 505 nm emission wavelength for detection.

T1 sequence (O95497 22-491): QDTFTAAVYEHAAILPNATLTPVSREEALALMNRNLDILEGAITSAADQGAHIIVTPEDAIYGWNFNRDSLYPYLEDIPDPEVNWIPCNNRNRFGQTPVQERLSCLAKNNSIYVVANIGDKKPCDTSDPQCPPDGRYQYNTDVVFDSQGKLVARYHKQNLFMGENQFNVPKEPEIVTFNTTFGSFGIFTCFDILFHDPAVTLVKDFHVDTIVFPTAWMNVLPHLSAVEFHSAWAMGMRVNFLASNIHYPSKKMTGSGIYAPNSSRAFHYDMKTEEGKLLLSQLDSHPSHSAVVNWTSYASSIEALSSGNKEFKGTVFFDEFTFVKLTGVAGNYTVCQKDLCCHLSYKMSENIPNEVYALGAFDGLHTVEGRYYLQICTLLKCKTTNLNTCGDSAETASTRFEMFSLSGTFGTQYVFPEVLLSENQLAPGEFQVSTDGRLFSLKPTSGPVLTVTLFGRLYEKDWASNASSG

Row | SMILES | IC50 (human vanin-1 [1]) [nM] | IC50 (human vanin-1 [2]) [nM] | IC50 (human vanin-1 [3]) [nM]
1 | CS(=O)(=O)c1cccc(C(=O)c2cnc(NCc3cncnc3)nc2)c1 [Example 20, [3-(methylsulfonyl)phenyl]{2-[(pyrimidin-5-ylmethyl)amino]pyrimidin-5-yl}methanone] | 9.4 | 17 | 
2 | CC(Nc1ccc(C(=O)c2cccc(C#N)c2)cn1)c1cncnc1 (centres unmarked) [Example 144, 3-[(6-{[1-(pyrimidin-5-yl)ethyl]amino}pyridin-3-yl)carbonyl] benzonitrile] | 12.5 | 19.8 | 
3 | COc1ccc(C(=O)c2cnc(NC(C)c3ccc(C(N)=O)cc3)nc2)cc1 (centres unmarked) [Example 160, 4-(1-{[5-(4-methoxybenzoyl)pyrimidin-2-yl]amino}ethyl) benzamide] | 3440 | 7150 | 
4 | COc1cccc(C(=O)c2cnc(NCc3cncnc3)nc2)c1 [Example 143, (3-methoxyphenyl) {2-[(pyrimidin-5-ylmethyl)amino]pyrimidin-5-yl}methanone] | 81.5 | 110 | 
5 | N#Cc1cccc(C(=O)c2cnc(NCc3ccc(N)nc3)nc2)c1 [Example 6, 3-[(2-{[(6-aminopyridin-3-yl)methyl]amino}pyrimidin-5-yl)carbonyl]benzonitrile] | 37.3 | 24.8 | 
6 | CS(=O)(=O)c1cccc(C(=O)c2cnc(NC3(c4cncnc4)CC3)nc2)c1 [Example 17, [3-(methylsulfonyl)phenyl](2-{[1-(pyrimidin-5-yl)cyclopropyl]amino}pyrimidin-5-yl)methanone] | 0.8 | 1.8 | 
7 | N#Cc1cccc(C(=O)c2cnc(NC3(c4cnccn4)CC3)nc2)c1 [Example 5, 3-[(2-{[1-(pyrazin-2-yl)cyclopropyl]amino}pyrimidin-5-yl)carbonyl]benzonitrile] | 3.4 | 9.8 | 
8 | CC(Nc1ncc(C(=O)c2cccc(C#N)c2)cn1)c1ccc(C(N)=O)cc1 (single isomer, unassigned; (-)) [Example 9, (−)-4-(1-{[5-(3-cyanobenzoyl)pyrimidin-2-yl]amino}ethyl)benzamide] | 10.3 | 41.3 | 
9 | N#Cc1cc(F)cc(C(=O)c2cnc(NCc3cncnc3)nc2)c1 [Example 130, 3-fluoro-5-({2-[(pyrimidin-5-ylmethyl)amino]pyrimidin-5-yl}carbonyl) benzonitrile] | 482 | 289 | 
10 | COc1cccc(C(=O)c2cnc(NC(C)c3cncnc3)nc2)c1 (centres unmarked) [Example 142, (3-methoxyphenyl) (2-{[1-(pyrimidin-5-yl)ethyl]amino}pyrimidin-5-yl)methanone] | 17.1 | 34.3 | 
11 | CS(=O)(=O)c1cccc(C(=O)c2cnc(NCc3cccnn3)nc2)c1 [Example 21, [3-(methylsulfonyl)phenyl]{2-[(pyridazin-3-ylmethyl)amino]pyrimidin-5-yl}methanone] |  | 63 | 
12 | CC(Nc1ncc(C(=O)c2cccc(C#N)c2)cn1)c1cncnc1 (centres unmarked) [Example 133, 3-[(2-{[1-(pyrimidin-5-yl)ethyl]amino}pyrimidin-5-yl)carbonyl] benzonitrile] |  | 15.5 | 
13 | N#Cc1ccc(F)c(C(=O)c2cnc(NCc3cncnc3)nc2)c1 [Example 131, 4-fluoro-3-({2-[(pyrimidin-5-ylmethyl)amino]pyrimidin-5-yl}carbonyl) benzonitrile] | 541 | 370 | 
14 | O=C(c1cnc(NC2(c3cncnc3)CC2)nc1)c1cccc(C(F)(F)F)c1 [Example 16, (2-{[1-(pyrimidin-5-yl)cyclopropyl]amino}pyrimidin-5-yl)[3-(trifluoromethyl)phenyl]methanone] | 1.7 | 2.6 | 
15 | CC(Nc1ncc(C(=O)c2cccc(C#N)c2)cn1)c1ccc(C(N)=O)cc1 (centres unmarked) [Example 8, 4-(1-{[5-(3-cyanobenzoyl)pyrimidin-2-yl]amino}ethyl)benzamide] |  | 91.4 | 
16 | O=C(c1ccc(NCc2cncnc2)nc1)c1cccc(C(F)(F)F)c1 [Example 139, {6-[(pyrimidin-5-ylmethyl)amino]pyridin-3-yl}[3-(trifluoromethyl)phenyl]methanone] |  | 31.5 | 
17 | CC(Nc1ncc(C(=O)c2cccc(C#N)c2)cn1)c1cccnc1 (centres unmarked) [Example 7, 3-[(2-{[1-(pyridin-3-yl)ethyl]amino}pyrimidin-5-yl)carbonyl]benzonitrile] |  | 3.9 | 
18 | O=C(c1cnc(NCc2cncnc2)nc1)c1ccnc(C(F)(F)F)c1 [Example 141, {2-[(pyrimidin-5-ylmethyl)amino]pyrimidin-5-yl}[2-(trifluoromethyl)pyridin-4-yl]methanone] |  | 280 | 
19 | N#Cc1ccc(C(=O)c2cnc(NCc3ccc(F)cc3)nc2)cc1 [Example 78, 4-({2-[(4-fluorobenzyl)amino]pyrimidin-5-yl}carbonyl) benzonitrile] | > 20000 |  | 687
20 | O=C(c1cnc(NCc2ccncc2)nc1)c1ccc(F)c(C(F)(F)F)c1 [Example 82, [4-fluoro-3-(trifluoromethyl)phenyl]{2-[(pyridin-4-ylmethyl)amino]pyrimidin-5-yl}methanone] | 111 |  | 55.5
21 | O=C(c1cnc(NCc2ccc(F)cc2)nc1)c1ccc(F)c(C(F)(F)F)c1 [Example 85, {2-[(4-fluorobenzyl)amino]pyrimidin-5-yl}[4-fluoro-3-(trifluoromethyl)phenyl]methanone] | 1130 |  | 52.8
22 | O=C(c1cnc(NCc2ccccc2)nc1)c1ccc(F)c(C(F)(F)F)c1 [Example 83, [2-(benzylamino)pyrimidin-5-yl][4-fluoro-3-(trifluoromethyl)phenyl]methanone] | 1050 |  | 84.4
23 | COc1ccc(CNc2ncc(C(=O)c3ccc(F)c(F)c3)cn2)cc1 [Example 41, (3,4-difluorophenyl){2-[(4-methoxybenzyl)amino]pyrimidin-5-yl}methanone] | 4270 |  | 808
24 | COc1ccc(CNc2ccc(C(=O)c3cccc(C(F)(F)F)c3)nn2)cc1 [Example 88, {6-[(4-methoxybenzyl)amino]pyridazin-3-yl}[3-(trifluoromethyl)phenyl]methanone] | 18600 |  | 9.3
25 | O=C(c1cnc(NCc2ccccc2)nc1)c1cc(F)cc(C(F)(F)F)c1 [Example 93, [2-(benzylamino)pyrimidin-5-yl][3-fluoro-5-(trifluoromethyl)phenyl]methanone] | 2150 |  | 154
26 | O=C(c1cnc(NCc2ccccc2)nc1)c1cccc(C(F)(F)F)c1 [Example 35, [2-(benzylamino)pyrimidin-5-yl][3-(trifluoromethyl)phenyl]methanone] | 242 |  | 20.5
27 | O=C(c1cccc(C(F)(F)F)c1)c1ccc(NCc2ccccc2)nn1 [Example 90, [6-(benzylamino)pyridazin-3-yl][3-(trifluoromethyl)phenyl]methanone] | 7430 |  | 86.4
28 | O=C(c1cnc(OCc2ccc(F)cc2)nc1)c1cccc(C(F)(F)F)c1 [Example 46, {2-[(4-fluorobenzyl)oxy]pyrimidin-5-yl}[3-(trifluoromethyl)phenyl]methanone] | > 20000 |  | > 213
